The text below walks through data of paper PMC10143845, “Series of Organotin(IV) Compounds with Different Dithiocarbamate Ligands Induced Cytotoxicity, Apoptosis and Cell Cycle Arrest on Jurkat E6.1, T Acute Lymphoblastic Leukemia Cells” (Molecules, 2023).

In general, IC50 refers to the concentration that gives 50% inhibition. Usually viability stands for a read-out of living cells in per cent, often relative to untreated cells. A higher viability goes with less harm to the cells.

Series [1] has as its system Jurkat E6.1 cells. The arrangement: method as in earlier work. The conditions noted are these: ref 31 (Kamaludin et al.); cited from earlier work.
Series [2] has as its system Jurkat E6.1 cells. Put plainly: Annexin V-FITC/PI apoptosis assay (mode of cell death) by flow cytometry. The conditions noted are these: Jurkat E6.1, treated at IC50 concentration, 24 h; for cell population in early apoptotic phase / cell population in late apoptotic phase: mean ± SEM; for total apoptosis population: early + late apoptosis. The format is cell-based, human. The procedure:
Apoptosis assay was performed according to the manufacturer’s instructions using Annexin V-FITC/PI staining kit (BD Biosciences, East Rutherford, NJ, USA). The Jurkat E6.1 cells were seeded in a 6-well plate with a final concentration of 5.0 × 10^5 cell/mL. […] After the incubation period, 500 μL of cells were harvested and transferred into a microcentrifuge tube. The sample was centrifuged at 1500 rpm for 5 min at 4 °C (Mikro 200R, Hettich, Kirchlengern, Germany) and the supernatant was discarded, and 500 μL of cold PBS was added to the sample followed by another centrifugation for 5 min, then the supernatant was discarded. Next, 150 μL of Annexin V binding buffer and 5.0 μL of Annexin V-FITC were added to the sample in the dark and then incubated for 15 min at room temperature. After that, 3.0 μL of propidium iodide (PI) was added to the samples. The samples then incubated for another 2 min at room temperature. Finally, 350 μL of Annexin V binding buffer was added to the samples and transferred into Falcon tubes. The samples were then analyzed using a BD FACS Canto II flow cytometer (BD Bioscience, East Rutherford, NJ, USA).
Background: Flow cytometry measures light scatter and fluorescence of single cells or particles in a stream.

The test system of series [3] is Jurkat E6.1 human T acute lymphoblastic leukemia cell line. Put plainly: WST-1 cytotoxicity assay on Jurkat E6.1 cells. The conditions noted are these: for Selectivity Index (SI): IC50 non-cancerous cell line (WIL2-NS) / IC50 leukemia cell line (Jurkat E6.1); for IC50: read-out: Value of IC50 Jurkat E6.1; for kind of effect on the cells (cytostatic or cytotoxic): Jurkat E6.1, WST-1, up to 5.0 μM, 24 h. The procedure:
(§1) The Jurkat E6.1 (TIB-152™) and WIL2-NS (CRL-8155™) cell lines were purchased from the American Type Culture Collection. These cells were cultured in Roswell Park Memorial Institute Medium 1640, RPMI-1640 supplemented with 10% Fetal Bovine Serum (FBS) and 1% penicillin-streptomycin to obtain the complete growth medium. The cells were incubated at 37 °C with 5% CO2 (New Brunswick Galaxy 170 S, Hamburg, Germany).
(§2) Jurkat E6.1 and WIL2-NS cell lines were cultured in 75 cm^2 flasks and seeded in 96-well culture plates with a final concentration of 1 × 10^6 cells/mL. The cells were exposed to organotin(IV) dithiocarbamate compounds with the highest concentration of 5.0 μM. Vincristine was used in this study as a positive control with its highest concentration, at 5.0 μM, while untreated cells (cells and complete medium only) were used as the negative control. Serial dilution methods are used to obtain the desired concentration gradient and the cells were then exposed to the compounds overnight (24 h). After the incubation period, the WST-1 solution (Roche, Basel, Switzerland) was added in a ratio of 1:10 to the suspension volume in the wells and incubated for another 4 h. Finally, the cells’ optical density (OD) was measured using an ELISA microplate reader (Multiskan FC, Thermo Scientific, Waltham, MA, USA) at 440 nm wavelength. The data obtained were analyzed using GraphPad Prism software (Dotmatics) to determine the IC50 values.
(§3) The selectivity index is determined by dividing the cytotoxic activity (IC50 value) of each compound on a non-cancerous cell line (WIL2-NS) to a leukemia cell line (Jurkat E6.1) using the following equation:SI = IC50 for non cancerous cell line IC50 for cancerous cell line
(Tetrazolium dyes change colour on reduction, which living cells bring about.)

The subject of series [4] is Jurkat E6.1 cells. Put plainly: Cell cycle analysis with RNase/PI stain by flow cytometry. In kind it is cell-based, human. The conditions noted are these: Jurkat E6.1, treated at IC50 concentration, 24 h; for cells in G0/G1 phase / cells in G2/M phase / cells in S phase: mean ± SEM. The procedure: Cell cycle analysis was performed according to the manufacturer’s instructions using PI/RNase Staining Buffer (BD Bioscience, East Rutherford, NJ, USA). For this assay, the Jurkat E6.1 cell line was cultured in 6-well culture plates with a final concentration of 1.0 × 10^6 cells/mL and treated with organotin(IV) dithiocarbamate compounds for 24 h, with vincristine as the positive control. The concentration of each treatment used was based on the IC50 values obtained from the WST-1 assay. After the incubation period, 500 µL of cell suspension was washed twice with cold PBS and fixed overnight with 500 µL of 70% ethanol. The cells were then stained with 500 µL RNase/PI stain and measured using a BD FACS Canto II flow cytometer (BD Bioscience, East Rutherford, NJ, USA). The cell cycle phases were analyzed using the ModFit LT software (Verity Software House).

Series [5] has as its system WIL2-NS non-cancerous cells. Put plainly: WST-1 cytotoxicity assay on WIL2-NS cells. The format is cell-based. The conditions noted are these: read-out: Value of IC50 WIL2-NS. The procedure: as §1, §2
A further series can be described thus: in vitro. The conditions noted are these: human. The procedure:
as §1, §2, §3

Setting [6] is: WST-1, 24 h exposure, highest concentration 5.0 μM, mean ± SEM, n = 3.

“Also recorded” adds a separate entry of the source. Like-named read-outs stand apart in the source and are kept apart here.

`COc1cccc2c1C(=O)c1c(O)c3c(c(O)c1C2=O)C[C@@](O)(C(=O)CO)C[C@@H]3O[C@H]1C[C@H](N)[C@H](O)[C@H](C)O1` [doxorubicin]: in the series on Jurkat E6.1 cells [1], the IC50 was 0.1 µM.
Turning to `CCN(CC)C(=S)[S][Sn]([c]1ccccc1)([c]1ccccc1)[c]1ccccc1` [ODTC 5, triphenyltin(IV) diethyl dithiocarbamate], in the series on Jurkat E6.1 cells [2], the “cell population in early apoptotic phase” value was found to be 56.50 ± 1.64%, the “cell population in late apoptotic phase” value is reported as 26.47 ± 1.23% and the total apoptosis population worked out at 82.97 ± 2.84%. For the same compound, the “Selectivity Index (SI)” value in series [3] stood at 0.86. Besides, the half-maximal inhibitory concentration (IC50) in series [3] (setting [6]) stood at 0.92 ± 0.05 µM. Moreover, in the series with Jurkat E6.1 cells [4], the “cells in G0/G1 phase” value is 9.84% ± 0.71, the “cells in G2/M phase” value is 31.46% ± 2.86 and the “cells in S phase” value was 58.70% ± 3.37. Moreover, the IC50 in series [5] (setting [6]) worked out at 0.79 ± 0.05 µM.
`CCN(CC)C(=S)[S][Sn]([CH3])([CH3])[S]C(=S)N(CC)CC` [ODTC 7, dimethyltin(IV) diethyl dithiocarbamate]: in the series with Jurkat E6.1 cells [2], the “cell population in early apoptotic phase” value is 13.13 ± 2.62%, the “cell population in late apoptotic phase” value was 14.93 ± 1.35% and the total apoptosis population is on record as 28.06%. In series [3], the “Selectivity Index (SI)” value stood at 0.15. The IC50 in series [3] (setting [6]) turned out to be 3.4 ± 0.25 µM. In addition, in the series with Jurkat E6.1 cells [4], the “cells in G0/G1 phase” value was 23.41% ± 5.37, the “cells in G2/M phase” value is listed as 17.39% ± 4.52 and the “cells in S phase” value is recorded as 57.19% ± 2.89. In addition, the IC50 in series [5] (setting [6]) turned out to be 0.5 ± 0.02 µM.
For `CC(C)N(C(=S)[S][Sn]([c]1ccccc1)([c]1ccccc1)[c]1ccccc1)C(C)C` [ODTC 3, triphenyltin(IV) diisopropyl dithiocarbamate], in the series with Jurkat E6.1 cells [2], the “cell population in early apoptotic phase” value is 59.70 ± 1.96%, the “cell population in late apoptotic phase” value worked out at 27.80 ± 2.17% and the total apoptosis population is 87.5%. In addition, in series [3], the “Selectivity Index (SI)” value was 1.11. The IC50 in series [3] (setting [6]) was 0.67 ± 0.06 µM. Besides, in the series with Jurkat E6.1 cells [4], the “cells in G0/G1 phase” value is 68.37% ± 4.78, the “cells in G2/M phase” value was 4.34% ± 0.99 and the “cells in S phase” value is given as 27.29% ± 5.12. For the same compound, in series [5] (setting [6]), the IC50 was determined as 0.75 ± 0.07 µM.
For the compound `C=CCN(CC=C)C(=S)[S][Sn]([c]1ccccc1)([c]1ccccc1)[c]1ccccc1` [ODTC 4, triphenyltin(IV) diallyl dithiocarbamate], in the series on Jurkat E6.1 cells [2], the “cell population in early apoptotic phase” value was 49.70 ± 2.84%, the “cell population in late apoptotic phase” value is on record as 38.63 ± 2.73% and the total apoptosis population came out at 88.33%. In addition, the “Selectivity Index (SI)” value in series [3] was 0.71. The IC50 in series [3] (setting [6]) came out at 0.94 ± 0.08 µM. Further, in the series on Jurkat E6.1 cells [4], the “cells in G0/G1 phase” value is given as 13.22% ± 2.30, the “cells in G2/M phase” value was 22.67% ± 3.54 and the “cells in S phase” value was 64.10% ± 4.46. Also, the IC50 in series [5] (setting [6]) was 0.67 ± 0.14 µM.
`CC(C)N(C(=S)[S][Sn]([S]C(=S)N(C(C)C)C(C)C)([c]1ccccc1)[c]1ccccc1)C(C)C` [ODTC 1, diphenyltin(IV) diisopropyl dithiocarbamate]: in the series with Jurkat E6.1 cells [2], the “cell population in early apoptotic phase” value is given as 12.23 ± 1.93%, the “cell population in late apoptotic phase” value amounted to 13.17 ± 1.13% and the total apoptosis population turned out to be 25.4%. Moreover, in series [3], the “Selectivity Index (SI)” value is listed as 0.96. Further, the IC50 in series [3] (setting [6]) was determined as 1.45 ± 0.02 µM. In the series with Jurkat E6.1 cells [4], the “Phases of Cell Cycle Arrest” value is “does not cause cell cycle arrest at any phase; also recorded: Not cell cycle specific”. In series [5] (setting [6]), the IC50 came to 1.39 ± 0.46 µM.
For the compound `CC[C@]1(O)C[C@H]2CN(CCc3c([nH]c4ccccc34)[C@@](C(=O)OC)(c3cc4c(cc3OC)N(C=O)[C@H]3[C@@](O)(C(=O)OC)[C@H](OC(C)=O)[C@]5(CC)C=CCN6CC[C@]43[C@@H]65)C2)C1` [Vincristine (positive control), Vincristine, reference compound], in the series on Jurkat E6.1 cells [2], the “cell population in early apoptotic phase” value came out at 36.07 ± 2.85%, the “cell population in late apoptotic phase” value stood at 18.57 ± 1.31% and the total apoptosis population stood at 54.64%. Further, the viability at 24 h, 0.3 µM in the series “in vitro” was found to be 40%. For the same compound, in series [3] (Homo sapiens, Jurkat E6.1, 24 h), the IC50 is 0.24 ± 0.02 µM. Besides, in series [3], the “Selectivity Index (SI)” value is 0.96 and the “kind of effect on the cells (cytostatic or cytotoxic)” value is given as “cytostatic effects”. Besides, in the series on Jurkat E6.1 cells [4], the “cells in G0/G1 phase” value is 66.76% ± 1.39, the “cells in G2/M phase” value is 8.00% ± 0.00 and the “cells in S phase” value was 25.24% ± 1.39. In addition, the IC50 in series [5] (Homo sapiens, WIL2-NS, 24 h) came out at 0.23 ± 0.03 µM.
Turning to `CC(C)N(C(=S)[S][Sn]([CH3])([CH3])[S]C(=S)N(C(C)C)C(C)C)C(C)C` [ODTC 6, dimethyltin(IV) diisopropyl dithiocarbamate], the “kind of effect on the cells (cytostatic or cytotoxic)” value in series [3] is recorded as “cytostatic effect”. In addition, the “Value of IC50 Jurkat E6.1” value in series [3] (setting [6]) is “does not produce IC50 value at the tested range of concentration”. Moreover, the IC50 in series [5] (setting [6]) worked out at 5 ± 0.02 µM.
Take `C=CCN(CC=C)C(=S)[S][Sn]([S]C(=S)N(CC=C)CC=C)([c]1ccccc1)[c]1ccccc1` [ODTC 2, diphenyltin(IV) diallyl dithiocarbamate]: in the series with Jurkat E6.1 cells [2], the “cell population in early apoptotic phase” value is given as 17.20 ± 2.69%, the “cell population in late apoptotic phase” value was determined as 30.07 ± 2.38% and the total apoptosis population worked out at 47.27%. Further, in series [3], the “Selectivity Index (SI)” value was 0.50. Further, the IC50 in series [3] (setting [6]) was 1.05 ± 0.02 µM. In the series on Jurkat E6.1 cells [4], the “cells in G0/G1 phase” value is 21.63% ± 3.17, the “cells in G2/M phase” value is given as 19.03% ± 0.20 and the “cells in S phase” value is recorded as 59.37% ± 3.07. For the same compound, the IC50 in series [5] (setting [6]) amounted to 0.52 ± 0.14 µM.
